According to article PMC9486541, “Design, synthesis and cytotoxic evaluation of novel betulonic acid-diazine derivatives as potential antitumor agents” (Frontiers in Chemistry, 2022):

Legend:
[1] = tested on: HepG2; assay: MTT assay, HepG2 cells; format: cell-based, human; conditions: Homo sapiens, HepG2, 72 h incubation, read-out: Half maximal inhibitory concentration (IC50) values, HepG2
From the text: (§1) The human hepatocellular carcinoma cell line (HepG2), human hepatocellular carcinoma cell line (Bel-7402), human cervical cancer cell line (Hela), human breast adenocarcinoma cell line (MCF-7) and Madin-Darby canine kidney cell line (MDCK) were obtained from the Chinese Academy of Medical Sciences and Peking Union Medical College. Cultures were maintained as monolayer in RPMI-1640/DMEM supplemented with 10% (v/v) fetal bovine serum (FBS) and 1% (v/v) penicillin/streptomycin (Thermo Technologies, New York, NY, United States) under a humidified atmosphere containing 5% CO2 at 37°C. The BoA derivatives and positive control drugs (BoA and DDP) under study were dissolved in DMSO (Sigma, St. Louis, MO, United States) and added at required concentrations to the cell culture. Cells incubated without the preparations served as the control.
(§2) The antitumor activity was assessed by MTT assay, as previously reported ([Fang et al., 2018]). Each tested compound and positive control drugs were dissolved in DMSO and diluted with the medium to the test concentrations, and the final concentration of DMSO in the culture medium was controlled at less than 0.5% (v/v). Briefly, cells were cultured at 37°C and dispersed in replicates in 96-well plates with HepG2, Bel-7402, HeLa, MCF-7 and MDCK for 24 h. Fresh medium along with compounds (BoAA-BoAE, BoA2A-BoA2G, BoA3A-BoA3G, BoA4A-BoA4G) at different concentrations was then added to individual wells and incubated for 72 h, with BoA and DDP as the positive control. Experiments on FXR expression were separated into three groups: Control (PBS), BoA2C (8 μM), and BoA2C (8 μM) + DY268 (10 μM) ([Giordano et al., 2016]), with three repeating wells in each. In separate wells, BoA2C and DY268 were introduced and cultured for 72 h. After 72 h, the cell was incubated with MTT solution (0.5 mg/ml) for an additional 4 h at 37°C. The produced formazan crystals were solubilized with DMSO, and the optical density of solution was measured at 570 nm using a plate reader (BIORAD 550 spectrophotometer, Bio-rad Life Science Development Ltd., Beijing, China). Wells without drugs were used to be blanks. The IC50 values were defined as the concentration of compounds that produced a 50% proliferation inhibition of surviving cells and calculated using the Graph Pad Prism 5. The inhibitory rate was calculated in the following Equation 1, where OD is the optical density: % inhibition=[1−(OD Sample group−OD Blank group)/(OD Control group−OD Blank group)]×100% (1)

[2] = tested on: Bel-7402; assay: MTT assay, Bel-7402 cells; format: cell-based, human; conditions: Homo sapiens, Bel-7402, 72 h incubation, read-out: Half maximal inhibitory concentration (IC50) values, Bel-7402
From the text: as §1, §2

[3] = tested on: Hela; assay: MTT assay, Hela cells; format: cell-based, human; conditions: Homo sapiens, HeLa, 72 h incubation, read-out: Half maximal inhibitory concentration (IC50) values, Hela
From the text: as §1, §2

[4] = tested on: MCF-7; assay: MTT assay, MCF-7 cells; format: cell-based, human; conditions: Homo sapiens, MCF7, 72 h incubation, read-out: Half maximal inhibitory concentration (IC50) values, MCF-7
From the text: as §1, §2

[5] = tested on: MDCK; assay: MTT assay, MDCK normal cell line; format: cell-based, canine
From the text: as §1, §2

Compound `C=C(C)[C@@H]1CC[C@]2(C(=O)OCCOC(=O)c3cnc(C)cn3)CC[C@]3(C)[C@H](CC[C@@H]4[C@@]5(C)CCC(=O)C(C)(C)[C@@H]5CC[C@]43C)[C@@H]12` [BoA2C, (5-Methylpyrazin-2-acyloxy)-ethyl-3-oxolup-20(29)-en-28-oate] has an IC50 [1] of 7.46 ± 1.43 µM, an IC50 [2] of 3.65 ± 0.43 µM and an IC50 [3] of 15.6 ± 2.63 µM. The IC50 [4] was 3.39 ± 0.07 µM, the “cytotoxicity on MDCK cell line compared with DDP (cisplatin)” value ([5]; 72 h) was “lower cytotoxicity on MDCK cell line than cisplatin” and the IC50 ([5]; Canis lupus familiaris, MDCK, 72 h incubation, normal cell line, read-out: Half maximal inhibitory concentration (IC50) values, MDCK) was greater than 30 µM.
